One data set concerns MIA-Paca2 (KRAS G12C). The data set is described as follows: Tumor cell proliferation inhibition assay (CellTiter-Glo), MIA-Paca2. The data set is classed as cell-based, Human. To be noted: Homo sapiens, MIA PaCa-2, 72 h, 10% fetal bovine serum. The procedure:
(§1) The H358, H23 or MIA-Paca2 cells were digested, centrifuged and resuspended, and the cell density was measured with a Scepter automatic cell counter. Cells were diluted to a solution containing 44,000 cells per milliliter, then added to a 96-well culture plate at 90 μL per well. The 96-well plate was placed in a 5% CO2 incubator at 37° C., and after the cells were cultured for 24 hours, different concentrations of the compounds to be tested were added. Cells were incubated with compounds in the presence of 10% fetal bovine serum for 72 hours. The inhibition of cell growth was assessed by measuring ATP levels by using the CellTiter-Glo Luminescent Cell Viability Assay Kit (details in manufacturer's instructions). In brief, 30 μL of CellTiter-Glo reagent was added to each well and the plate was shaken for 10 minutes to induce cell lysis, then the fluorescent signal was detected and recorded with a Fluoroskan Ascent FL (Thermo). Maximum signal values were obtained from cells treated with DMSO for 72 hours. Minimum signal values were obtained with medium only (zero cell number). Inhibition rate %=(maximum signal value-compound signal value)/(maximum signal value-minimum signal value)×100%. Data were processed by using Graphpad prism5 software. IC50 values were calculated using a sigmoidal dose-response curve.

The next data set deals with H358 (KRAS G12C). Description: Tumor cell proliferation inhibition assay (CellTiter-Glo), H358. The data set is classed as cell-based, Human. To be noted: Homo sapiens, NCI-H358, 72 h, 10% fetal bovine serum. As for the experimental part:
as §1
(In general: In ATP-based viability assays light output follows the ATP content of the culture.)

One may read the melting point as the temperature of the solid-liquid transition. What is called IC50 is the concentration needed to halve the response being measured.

Bounds are passed on as bounds.

In turn, `C=CC(=O)N1CCN(c2nc(=O)n(-c3c(C)ccnc3C(C)C)c3nc(-c4c(F)ccc5ccsc45)c(F)cc23)[C@@H](C)C1` [Compound 71, 4-((S)-4-Acryloyl-2-methylpiperazin-1-yl)-6-fluoro-7-(6-fluorobenzo[b]thiophen-7-yl)-1-(2-isopropyl-4-methylpyridin-3-yl)pyrido[2,3-d]pyrimidin-2(1H)-one] yielded a melting point of 148 to 150 °C. In the data set with MIA-Paca2 (KRAS G12C), the IC50 fell in the range of 50 to 100 nM. Further, in the data set on H358 (KRAS G12C), the IC50 is 10 to 50 nM.
Compound `C=CC(=O)N1CCN(c2nc(=O)n(-c3c(C)ccnc3C(C)C)c3nc(-c4c(F)ccc5ncsc45)c(F)cc23)[C@@H](C)C1` [Compound 78, 4-((S)-4-acryloyl-2-methylpiperazin-1-yl)-6-fluoro-7-(6-fluorobenzo[d]thiazol-7-yl)-1-(2-isopropyl-4-methylpyridin-3-yl)pyrido[2,3-d]pyrimidin-2(1H)-one] showed a melting point of 158 to 162 °C. Besides, the half-inhibitory concentration (IC50) in the data set with MIA-Paca2 (KRAS G12C) is more than 500 nM. This compound gave an IC50 in the data set with H358 (KRAS G12C) of 100 to 500 nM.
The compound `C=CC(=O)N1CCN(c2nc(=O)n(-c3c(C)ccnc3C(C)C)c3nc(-c4c(C)ccc5ccoc45)c(F)cc23)[C@@H](C)C1` [Compound 108, 4-((S)-4-acryloyl-2-methylpiperazin-1-yl)-6-fluoro-1-(2-isopropyl-4-methylpyridin-3-yl)-7-(6-methylbenzofuran-7-yl)pyrido[2,3-d]pyrimidin-2(1H)-one] showed a melting point of 151 to 163 °C. Moreover, the IC50 with MIA-Paca2 (KRAS G12C) is 100 to 500 nM. This compound also came in with an IC50 in the data set on H358 (KRAS G12C) of 10 to 50 nM.
Taken in the same sequence, the figures for `C=CC(=O)N1CCN(c2nc(=O)n(-c3c(C)ccnc3C(C)C)c3nc(-c4c(OC)ccc5ccoc45)c(F)cc23)[C@@H](C)C1` [Compound 109, 4-((S)-4-acryloyl-2-methylpiperazin-1-yl)-6-fluoro-1-(2-isopropyl-4-methylpyridin-3-yl)-7-(6-methoxybenzofuran-7-yl)pyrido[2,3-d]pyrimidin-2(1H)-one] were 156 to 158 °C, 100 to 500 nM and 50 to 100 nM.
On to `C/C=C/C(=O)N1CCN(c2nc(=O)n(-c3c(C)ccnc3C(C)C)c3nc(-c4cc5ccoc5cc4F)c(F)cc23)[C@@H](C)C1` [Compound 113, (S,E)-4-(4-(but-2-enoyl)-2-methylpiperazin-1-yl)-6-fluoro-7-(6-fluorobenzofuran-5-yl)-1-(2-isopropyl-4-methylpyridin-3-yl)pyrido[2,3-d]pyrimidin-2(1H)-one], for which the melting point was in the range of 155 to 157 °C. Also, the IC50 in the data set on MIA-Paca2 (KRAS G12C) was more than 500 nM. The same compound displayed a concentration for half-maximal inhibition (IC50) in the data set with H358 (KRAS G12C) of more than 500 nM.
The compound `Cc1ccnc(C(C)C)c1-n1c(=O)nc(N2CCN(C(=O)/C=C/CN(C)C)C[C@@H]2C)c2cc(F)c(-c3cc4ccoc4cc3F)nc21` [Compound 114, (S,E)-4-(4-(4-(dimethylamino)but-2-enoyl)-2-methylpiperazin-1-yl)-6-fluoro-7-(6-fluorobenzofuran-5-yl)-1-(2-isopropyl-4-methylpyridin-3-yl)pyrido[2,3-d]pyrimidin-2(1H)-one] came in with a melting point of 162 to 164 °C. In addition, the IC50 with MIA-Paca2 (KRAS G12C) was more than 500 nM. Further, the IC50 in the data set with H358 (KRAS G12C) was more than 500 nM.
Compound `COC/C=C/C(=O)N1CCN(c2nc(=O)n(-c3c(C)ccnc3C(C)C)c3nc(-c4cc5ccoc5cc4F)c(F)cc23)[C@@H](C)C1` [Compound 115, (S,E)-6-fluoro-7-(6-fluorobenzofuran-5-yl)-1-(2-isopropyl-4-methylpyridin-3-yl)-4-(4-(4-methoxybut-2-enoyl)-2-methylpiperazin-1-yl)pyrido[2,3-d]pyrimidin-2(1H)-one] yielded a melting point of 136 to 138 °C. Besides, the IC50 in the data set with MIA-Paca2 (KRAS G12C) is more than 500 nM. This compound gave an IC50 in the data set on H358 (KRAS G12C) of more than 500 nM.
The compound `C=CC(=O)N1CCN(c2nc(=O)n(-c3c(C)ncnc3C(C)C)c3nc(-c4c(F)ccc5ccoc45)c(F)cc23)[C@@H](C)C1` [Compound 116, 4-((S)-4-acryloyl-2-methylpiperazin-1-yl)-6-fluoro-7-(6-fluorobenzofuran-7-yl)-1-(4-isopropyl-6-methylpyrimidin-5-yl)pyrido[2,3-d]pyrimidin-2(1H)-one] registered a melting point of 143 to 146 °C. Besides, the half-inhibitory concentration (IC50) in the data set with MIA-Paca2 (KRAS G12C) fell in the range of 100 to 500 nM. Also, in the data set with H358 (KRAS G12C), the IC50 fell in the range of 50 to 100 nM.
